Reference: US20260034253A1, “NECTIN-4 MINIPROTEIN CONJUGATES” (Aktis Oncology, Inc., priority 2022, published 2026)
Numbered stars: 1 amine (or outer) side, 2 acyl side, 3 side chain; on linkers, the order of the positions; unused ones are H or OH. Bridge positions count the residues as written; N and C are the ends. Square brackets hold non-standard residues; d marks the D form. Ends that are not written are not given here. * marks the point of attachment. Biotin = O=C1N[C@H]2[C@H](CS[C@H]2CCCCC(=O)*)N1; X1 = O=C([C@H](CCCCO)N[*:1])[*:2]; Cit = NC(=O)NCCC[C@H](N)C(=O)O; PEG4 = NCCOCCOCCOCCOCCC(=O)O

biological target: T1, human Nectin-4 (Homo sapiens, UniProt Q96NY8); assay: Surface plasmon resonance (Biacore T200) binding to human Nectin-4; details: Table 2B, binding affinities of exemplary compounds to Nectin-4, read-out: Binding Affinity
T1 sequence (Q96NY8 32-510): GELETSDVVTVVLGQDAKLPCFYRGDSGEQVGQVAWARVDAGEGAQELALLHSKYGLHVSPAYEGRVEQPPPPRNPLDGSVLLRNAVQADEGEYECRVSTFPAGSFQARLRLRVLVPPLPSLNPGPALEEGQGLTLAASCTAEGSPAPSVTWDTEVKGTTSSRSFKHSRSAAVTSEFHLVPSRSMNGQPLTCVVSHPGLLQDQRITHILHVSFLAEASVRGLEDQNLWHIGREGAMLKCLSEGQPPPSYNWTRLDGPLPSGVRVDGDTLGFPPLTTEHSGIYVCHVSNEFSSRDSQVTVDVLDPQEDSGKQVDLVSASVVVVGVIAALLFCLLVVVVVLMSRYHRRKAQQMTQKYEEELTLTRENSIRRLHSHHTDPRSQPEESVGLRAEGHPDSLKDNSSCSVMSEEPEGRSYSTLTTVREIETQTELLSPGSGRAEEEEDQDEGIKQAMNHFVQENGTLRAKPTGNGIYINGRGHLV
Experimental: Peptide binding affinity to the target protein was measured by SPR using a Biacore T200 instrument. The target protein was covalently coupled to a Biacore chip surface using free amine-coupling chemistry (NHS/EDC) and all uncoupled sites were blocked with ethanolamine. Free peptides were flowed over the target protein surface in increasing concentrations to measure association (KA) and dissociation ([…]) to calculate the equilibrium dissociation constant (KD) using an appropriate binding model (see, e.g., Nikolas Stroth, J Biol Methods. 2016; 3 (1)).
In all figures (FIGS. 1A, 1B, 2A, and 2B), lines on graphs are labeled from top to bottom, beginning with letter “a,” and the corresponding concentration is noted to the right of the figure, next to the letter designating each line.
Surface plasmon resonance (SPR) analyses were performed using Biacore T200 (GE Healthcare). Target protein (“ligand”) was immobilized to a CM5 Series S sensor chip (Cytiva) using amine-coupling chemistry. Running buffer was 0.05% Surfactant P20 in HEPES buffered saline (HBS-P), pH 7.4 (Cytiva). Immobilization was performed at 25° C. Carboxyl groups in each flow cell were activated using a 1:1 mixture of 0.4 M 1-ethyl-3-(3-dimethylaminopropyl)-carbodiimide in water (EDC) and 0.1 M N-hydroxysuccinimide in water (NHS) for 7 minutes. The ligand was prepared in 10 mM Sodium acetate pH 5 (Cytiva). Pulsatile injections were made to target a specific immobilization level. Any remaining amine-reactive esters on the chip surface were blocked with a 7-minute injection of 1 M ethanolamine, pH 8.5. Three 10-second pulses of 50 mM Sodium hydroxide were then made to remove any unbound ligand. Reference cells were modified using amine coupling chemistry, omitting ligand injection.
Increase in signal (RU) is proportional to an increase in binding events between the analyte and ligand surface. The injection was then stopped, and dissociation was measured. The resulting sensorgram has reference surface and blank injection subtracted prior to curve fitting. Measured association (ka, 1/M^s−1) and dissociation (kd, s^−1) were fit to a 1:1 binding model to calculate an equilibrium dissociation constant, KD(M) for each analyte. Equilibrium binding constants (KD) and binding inhibition constants (Ki) estimated from surface plasmon resonance (SPR) or DELFIA® binding assays for exemplary compounds as set forth in Table 2A.
In this example, affinity for mouse Nectin-4 (FIG. 3A) and human Nectin-4 (FIG. 3B) were measured using a 1:1 binding model at twenty-five degrees Celsius. In both of FIGS. 3A and 3B, lines on graphs were labeled from top to bottom, beginning with letter a, and the corresponding concentration was noted to the right of the figure.

Compound | Kd [nM]
{Biotin-PEG4}-CEYDEEFFTALARLRGGDICDYIQAKFQYLPGLCIAEILDNLGCS (disulfide 1-34, 20-44) [Compound C157] | 1.1
{Biotin-PEG4}-CEYDEEFFTALA[Cit]LRGDDICSYIQA[X1]FQYLPGLCIEEILDNLGCS-OH (disulfide 1-34, 20-44) [Compound C170] | 8.8
{Biotin-PEG4}-CEYDEEFFTALARLRGSDICLYIQAKFQYLPGLCIEEILDNLGCS (disulfide 1-34, 20-44) [Compound C156] | 1.1
{Biotin-PEG4}-CEYDEEFFTALARLRGADICYYIQAKFQYLPGDCIEEILDNLGCS (disulfide 1-34, 20-44) [Compound C140] | 1.1
{Biotin-PEG4}-CDYDEEFFTALKRLRGDDICEYIQASFQYLPGLCIEEILDNLGCS-OH (disulfide 1-34, 20-44) [Compound C191] | 1.4
{Biotin-PEG4}-CEYDEQFFTALKRLRGADICSYIQASFQYLPGLCIEEILDNLGCS (disulfide 1-34, 20-44) [Compound C185] | 1
{Biotin-PEG4}-CEYDEEFFTALKRLRGADICDYIQASFQYLPGLCIEEILDNLGCS (disulfide 1-34, 20-44) [Compound C195] | 2.3
{Biotin-PEG4}-CEYDGEFFTALARLRGADICEYIQAKFQYYPGLCIEEILDNLGCS (disulfide 1-34, 20-44) [Compound C144] | 3.7
{Biotin-PEG4}-CEYDEEFFTALARLRGGDICEYIQAKFQYLEGLCIEEILDNLGCS-OH (disulfide 1-34, 20-44) [Compound C150] | 1
{Biotin-PEG4}-CEYDEEFFTALKRLRGDDICSYIQASFQYLPGLCIEEILDNLGCS (disulfide 1-34, 20-44) [Compound C182] | 3
{Biotin-PEG4}-CEYDEEFFTALKRLRGGDICEYIQAAFQYLPGLCIEEILDNLGCS (disulfide 1-34, 20-44) [Compound C198] | 2.3
{Biotin-PEG4}-CEYDEEFFTALKRLRGGDICEYIQASFQYLPGECIEEILDNLGCS (disulfide 1-34, 20-44) [Compound C202] | 2.2
{Biotin-PEG4}-CEYDEEFFTALARLRGGDICQYIQAKFQYLPGQCIEEILDNLGCS-OH (disulfide 1-34, 20-44) [Compound C149] | 0.75
{Biotin-PEG4}-CEYDEEFFTALKRLRGGDICDYIQASFQYLPGECIEEILDNLGCS (disulfide 1-34, 20-44) [Compound C203] | 2.3
{Biotin-PEG4}-CDYDEQFFTALKRLRGDDICEYIQASFQYLPGLCIEEILDNLGCS (disulfide 1-34, 20-44) [Compound C193] | 1
CC[C@H](C)[C@@H]1NC(=O)[C@H](Cc2ccc(O)cc2)NC(=O)[C@H](CO)NC(=O)[C@@H]2CSSC[C@@H](C(=O)N[C@@H](CO)C(=O)O)NC(=O)CNC(=O)[C@H](CC(C)C)NC(=O)[C@H](CC(N)=O)NC(=O)[C@H](CC(=O)O)NC(=O)[C@H](CC(C)C)NC(=O)[C@H]([C@@H](C)CC)NC(=O)[C@H](CCC(=O)O)NC(=O)[C@H](CCC(=O)O)NC(=O)[C@H]([C@@H](C)CC)NC(=O)[C@H](CSSC[C@H](NC(=O)CCOCCOCCOCCOCCNC(=O)CCCC[C@@H]3SC[C@@H]4NC(=O)N[C@@H]43)C(=O)N[C@@H](CCC(=O)O)C(=O)N[C@@H](Cc3ccc(O)cc3)C(=O)N[C@@H](CC(=O)O)C(=O)N[C@@H](CCC(=O)O)C(=O)N[C@@H](CCC(=O)O)C(=O)N[C@@H](Cc3ccccc3)C(=O)N[C@@H](Cc3ccccc3)C(=O)N[C@@H]([C@@H](C)O)C(=O)N[C@@H](C)C(=O)N[C@@H](CC(C)C)C(=O)N[C@@H](CCCCN)C(=O)N[C@@H](CCCNC(=N)N)C(=O)N[C@@H](CC(C)C)C(=O)N[C@@H](CCCNC(=N)N)C(=O)NCC(=O)NCC(=O)N[C@@H](CC(=O)O)C(=O)N[C@@H]([C@@H](C)CC)C(=O)N2)NC(=O)[C@H](CC(C)C)NC(=O)CNC(=O)[C@@H]2CCCN2C(=O)[C@H](CC(C)C)NC(=O)[C@H](Cc2ccc(O)cc2)NC(=O)[C@H](CCC(N)=O)NC(=O)[C@H](Cc2ccccc2)NC(=O)[C@H](CO)NC(=O)[C@H](C)NC(=O)[C@H](CCC(N)=O)NC1=O [Compound C179] | 1.8
{Biotin-PEG4}-CDYDEEFFTALKRLRGGDICSYIQASFQYLPGLCIEEILDNLGCS (disulfide 1-34, 20-44) [Compound C189] | 1.1
{Biotin-PEG4}-CEYDEEFFTALKRLRGGDICDYIQASFQYLPGLCIEEILDNLGCS-OH (disulfide 1-34, 20-44) [Compound C200] | 2
{Biotin-PEG4}-CEYDEQFFTALKRLRGADICEYIQASFQYLPGLCIEEILDNLGCS (disulfide 1-34, 20-44) [Compound C183] | 1.2
{Biotin-PEG4}-CEYDEEFFTALARLRGGDICYYIQAKFQYLPKLCIEEILDNLGCS (disulfide 1-34, 20-44) [Compound C166] | 0.75
{Biotin-PEG4}-CEYDEEFFTALASLRGGDICYYIQAKFQYLPGLCIEEILDNLGCS-OH (disulfide 1-34, 20-44) [Compound C161] | 7.5
{Biotin-PEG4}-CEYDEEFFTALARLRGGDICYYILAKFQYLPGECIEEILDNLGCS (disulfide 1-34, 20-44) [Compound C145] | 1.3
{Biotin-PEG4}-CEYDEEFFTALARLRGGDICYYIQA[X1]FQYLPGLCIEEILDNLGCS-OH (disulfide 1-34, 20-44) [Compound C164] | 5
{Biotin-PEG4}-CEYDEEFFTALAQLRGGDICYYIQAKFQYLPGLCIEEILDNLGCS (disulfide 1-34, 20-44) [Compound C162] | 8.8
{Biotin-PEG4}-CEYDGEFFTALARLRGGDICQYIQAKFQYLPGLCIEEILDNLGCS-OH (disulfide 1-34, 20-44) [Compound C158] | 1.1
